Experimental findings from EP0987250A1, “INDOLE DICARBOXYLIC ACID DERIVATIVES” (SHIONOGI & CO., LTD., priority 1997, dated 1998) are described below.

pIC50: −log10 of the molar value.

Series [1] in a line: Evaluation of solubility in water. It counts as physicochemical. To be noted: thermodynamic from solid; Na salt: monosodium salt of 10 and 21, disodium salt (20) of 11; water added dropwise by 10 µl; corrected for mg in 1 ml at 23°C. The method, then:
A solution of 10.3 mg (24.3 µmol) of compound (11) in 4.85 ml (48.6 µmol) of a 0.01 M methanolic solution of sodium methylate was filtered through a Millipore filter and then concentrated. The resulting residue was dried under reduced pressure to obtain disodium salt (20).

In a further series the target is T1, human sPLA2 (Homo sapiens, UniProt P14555).
T1 sequence (P14555 21-144): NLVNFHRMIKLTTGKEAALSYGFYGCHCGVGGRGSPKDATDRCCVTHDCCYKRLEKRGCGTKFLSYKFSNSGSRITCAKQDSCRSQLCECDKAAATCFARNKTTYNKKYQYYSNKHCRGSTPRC
As to the kind of experiment: In vitro test for sPLA2-inhibitory action by PC/DOC method. Conditions: PC/DOC = 1 mM/3 mM; Tris buffer 50 mM, pH 8.0; 40°C for 30 minutes; oleic acid measured by HPLC. It counts as biochemical.

Description for human sPLA2: A 50 mM solution of 1-palmitoyl-1-oleoyl-sn-glycero-3-phosphatidylcholine in chloroform (PC) was used as a substrate. A 150 mM solution of sodium deoxycholate in methanol (DOC) was used as a surface-active agent
First, the substrate and the surface-active agent were transferred into an Eppendorf tube and the solvent was evaporated by applying a nitrogen stream. Then, the tube was placed in a desiccator and evacuated with a pump to complete dryness. Thereto was added water in an amount to be used for the assay and the solution was stirred for 1 minute. The final concentrations were adjusted so as to make PC/DOC = 1 mM/3 mM.
As the buffer solution for measurement was prepared a Tris buffer solution (50 mM, pH 8.0) containing 150 mM sodium chloride, calcium chloride (10 mM), and bovine serum albumin (1 mg/ml).
To a test compound solution were added the substrate solution and the buffer solution for measurement prepared as described above and the resulting mixture was stirred to mix. […] HPLC analysis was carried out under the following analysis conditions: Column: Supersphere ^R60 RP-8 (Merck & Co.) Mobile: Phase: Acetonitrile : Distilled water (93:7) Detection: Absorbance at 254 nm
The inhibitory activity of the compound was calculated from the amount of oleic acid thus-measured.

Take `CCc1c(C(=O)C(N)=O)c2c(OCC(=O)O)cc(C(=O)O)cc2n1Cc1ccccc1` [Compound 11, 1-Benzyl-6-carboxy-4-carboxymethyloxy-2-ethyl-3-oxamoyl-1H-indole]: in series [1], the solubility (usually how much of the substance goes into solution per volume) turned out to be 228 mg/mL. Besides, the pIC50 (as a rule, the IC50 on a negative log10 scale, so that one unit is a factor of ten) against human sPLA2 was 7.36.

In the case of `CCc1c(C(=O)C(N)=O)c2c(OCC(=O)O)cccc2n1Cc1ccccc1` [Compound 21, reference compound], the solubility in series [1] came to 1.4 mg/mL. On to `CCc1c(C(=O)C(N)=O)c2c(OCC(=O)O)cc(C(=O)OC)cc2n1Cc1ccccc1` [compound 10], for which the solubility in series [1] was 68 mg/mL. In addition, on human sPLA2, the pIC50 is 8.77.
